Data as given in patent US9346794B1, “Substituted 4-pyridones and their use as inhibitors of neutrophil elastase activity” (Boehringer Ingelheim International GmbH, priority 2012, dated 2016).

Target: Human neutrophil elastase (Homo sapiens (Human), UniProt P08246)
Assay: Human Neutrophil Elastase Assay
Type: biochemical
Settings: substrate MeOSuc-Ala-Ala-Pro-Val-AMC 250 μM, fluorescence, pH 7.5
Protocol: Human Neutrophil Elastase Assay
All other materials were of the highest grade commercially available.
The following buffers were used: Compound buffer: 100 mM Tris, 500 mM NaCl, adjusted to pH 7.5; Assay buffer: 100 mM Tris, 500 mM NaCl, adjusted to pH 7.5, containing 0.01% BSA.
Assay conditions: Test compounds were prediluted in DMSO and subsequently in compound buffer (5% DMSO final). […] After inactivation of the enzyme, fluorescence intensities were measured at 380 nm excitation and 460 nm emission wavelengths.
Each plate contains wells with a high value control (DMSO+enzyme+substrate) and wells with a low value control (DMSO+inactivated enzyme+substrate). IC50 values were estimated using a sigmoidal concentration response curve with variable slope. Means of low values were taken as 0%, means of high values as 100%. IC50 values of selected compound in the Neutrophil Elastase assay: […]

Chain of Human neutrophil elastase (P08246 30-247): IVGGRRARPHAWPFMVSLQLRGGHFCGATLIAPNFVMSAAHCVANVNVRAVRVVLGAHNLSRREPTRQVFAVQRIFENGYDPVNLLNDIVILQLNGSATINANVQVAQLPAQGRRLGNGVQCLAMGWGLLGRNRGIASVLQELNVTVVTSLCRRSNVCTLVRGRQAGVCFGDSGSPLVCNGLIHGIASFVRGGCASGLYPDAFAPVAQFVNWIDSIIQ

Compound | IC50
CCn1cc(C(=O)NCc2ccc(S(=O)(CC)=NC#N)cc2)c(=O)c(-c2cccc(C(F)F)c2)c1C (centres unmarked) [Example 29] | 1.5 nM
Cc1c(-c2cccc(C(F)(F)F)c2)c(=O)c(C(=O)NCc2ccc(S(C)(=O)=NC#N)cc2)cn1C1CCCOC1 (centres unmarked) [Example 55] | 1.8 nM
Cc1c(-c2ccnc(C(F)(F)F)c2)c(=O)c(C(=O)NCc2ccc(S(C)(=O)=NC#N)cc2)cn1-c1ccccc1 (single isomer, unassigned) [Example 43] | 13.4 nM
CCS(=O)(=NC#N)c1ccc(CNC(=O)c2cn(C(C)C)c(C)c(-c3cccc(C(F)(F)F)c3)c2=O)cc1 (centres unmarked) [Example 12] | < 1 nM
CN=S(=O)(c1ccc(CNC(=O)c2cn(C(C)C)c(C)c(-c3cccc(C(F)F)c3)c2=O)cc1)N(C)C (centres unmarked) [Example 61, 5-(3-Difluoromethyl-phenyl)-1-isopropyl-6-methyl-4-oxo-1,4-dihydro-pyridine-3-carboxylic acid 4-(N,N,N′-trimethylsulfamimidoyl)-benzylamide] | 10.2 nM
CCS(=O)(=NC#N)c1ccc(CNC(=O)c2cn(-c3ccnn3C)c(C)c(-c3cccc(C(F)F)c3)c2=O)cc1 (centres unmarked) [Example 36] | 1 nM
Cc1c(-c2cccc(C(F)(F)F)c2)c(=O)c(C(=O)NCc2ccc(S(C)(=O)=NC#N)cn2)cn1C(C)C (centres unmarked) [Example 16, 5-(3-trifluoromethyl-phenyl)-1-isopropyl-6-methyl-4-oxo-1,4-dihydro-pyridine-3-carboxylic acid (5-(N-cyano-S-methylsulfonimidoyl)pyridin-2-yl)methylamide] | 1.9 nM
Cc1c(-c2cccc(C(F)F)c2)c(=O)c(C(=O)NCc2ccc(S(C)(=O)=NC#N)cc2)cn1C1CCC1 (centres unmarked) [Example 6, 5-(3-Difluoromethyl-phenyl)-1-cyclobutyl-6-methyl-4-oxo-1,4-dihydro-pyridine-3-carboxylic acid 4-(N-cyano-S-methylsulfonimidoyl)-benzylamide] | 2.4 nM
Cc1c(-c2ccc(F)c(C(F)F)c2)c(=O)c(C(=O)NCc2ccc(S(C)(=O)=NC#N)cc2)cn1C(C)C (single isomer, unassigned) [Example 42] | 4.7 nM
Cc1c(-c2cccc(C(F)(F)F)c2)c(=O)c(C(=O)NCc2ccc(S(C)(=O)=NC#N)cc2)cn1-c1ccnn1C (single isomer, unassigned) [Example 47] | 1.2 nM
Cc1c(-c2cccc(C(F)(F)F)c2)c(=O)c(C(=O)NCc2ccc(S(C)(=O)=NC#N)cc2)cn1C1CCOCC1 (centres unmarked) [Example 53] | 2.3 nM
CCn1cc(C(=O)NCc2ccc(S(=O)(=NC#N)C(C)C)cc2)c(=O)c(-c2cccc(C(F)(F)F)c2)c1C (centres unmarked) [Example 11] | < 1 nM
CN=S(C)(=O)c1ccc(CNC(=O)c2cn(C(C)C)c(C)c(-c3cccc(C(F)(F)F)c3)c2=O)cc1 (centres unmarked) [Example 67, 1-Isopropyl-6-methyl-4-oxo-5-(3-trifluoromethyl-phenyl)-1,4-dihydro-pyridine-3-carboxylic acid 4-(N,S-dimethylsulfonimidoyl)-benzylamide] | 49.3 nM
Cc1c(-c2cccc(C(F)(F)F)c2)c(=O)c(C(=O)NCc2ccc(S(C)(=O)=NC#N)cc2)cn1-c1ccnn1C (centres unmarked) [Example 8, 6-Methyl-1-(2-methyl-2H-pyrazol-3-yl)-4-oxo-5-(3-trifluoromethyl-phenyl)-1,4-dihydro-pyridine-3-carboxylic acid 4-(N-cyano-S-methylsulfonimidoyl)-benzylamide] | 2.4 nM
CCn1cc(C(=O)NCc2ccc(S(C)(=O)=NC#N)cc2)c(=O)c(-c2cccc(C(F)F)c2)c1C (centres unmarked) [Example 5, 5-(3-Difluoromethyl-phenyl)-1-ethyl-6-methyl-4-oxo-1,4-dihydro-pyridine-3-carboxylic acid 4-(N-cyano-S-methylsulfonimidoyl)-benzylamide] | 2.5 nM
Cc1c(-c2cccc(C(F)F)c2)c(=O)c(C(=O)NCc2ccc(S(C)(=O)=NC#N)c(F)c2)cn1C(C)C (centres unmarked) [Example 32] | 1.1 nM
CCn1cc(C(=O)NCc2ccc(S(=O)(=NC#N)C(C)C)cc2)c(=O)c(-c2cccc(C(F)F)c2)c1C (centres unmarked) [Example 30] | < 1 nM
Cc1cc(S(C)(=O)=NC#N)ccc1CNC(=O)c1cn(C(C)C)c(C)c(-c2cccc(C(F)F)c2)c1=O (centres unmarked) [Example 34] | 2.4 nM
Cc1c(-c2cccc(C(F)F)c2)c(=O)c(C(=O)NCc2ccc(S(C)(=O)=NC#N)cc2)cn1C(C)C (centres unmarked) [Example 1, 5-(3-Difluoromethyl-phenyl)-1-isopropyl-6-methyl-4-oxo-1,4-dihydro-pyridine-3-carboxylic acid 4-(N-cyano-S-methylsulfonimidoyl)-benzylamide] | 1.3 nM
Cc1c(-c2cccc(C(F)(F)F)c2)c(=O)c(C(=O)NCc2ccc(S(=O)(=NC#N)C(C)C)cc2)cn1-c1ccnn1C (centres unmarked) [Example 19] | 1 nM
CCn1cc(C(=O)NCc2ccc(S(C)(=O)=NC#N)cc2)c(=O)c(-c2cccc(C(F)(F)F)c2)c1C (racemic) [Example 4, 1-Ethyl-6-methyl-4-oxo-5-(3-trifluoromethyl-phenyl)-1,4-dihydro-pyridine-3-carboxylic acid 4-(N-cyano-S-methylsulfonimidoyl)-benzylamide] | 3 nM

More lines, now with the values ahead:

IC50 | Compound
4.1 nM | CCn1cc(C(=O)NCc2ccc(S(C)(=O)=NC#N)cc2)c(=O)c(-c2cccc(C(F)(F)F)c2)c1C (single isomer, unassigned) [Example 4A, 1-Ethyl-6-methyl-4-oxo-5-(3-trifluoromethyl-phenyl)-1,4-dihydro-pyridine-3-carboxylic acid 4-(N-cyano-S-methylsulfonimidoyl)-benzylamide]
2.7 nM | CCn1cc(C(=O)NCc2ccc(S(=O)(CC)=NC#N)cc2)c(=O)c(-c2cccc(C(F)(F)F)c2)c1C (single isomer, unassigned) [Example 10A]
1.2 nM | Cc1c(-c2cccc(C(F)(F)F)c2)c(=O)c(C(=O)NCc2ccc(S(=O)(=NC#N)C(C)C)cc2)cn1C1CC1 (single isomer, unassigned) [Example 22B]
5.1 nM | Cc1c(-c2ccnc(C(F)(F)F)c2)c(=O)c(C(=O)NCc2ccc(S(C)(=O)=NC#N)cc2)cn1C(C)C (single isomer, unassigned) [Example 3B, 1-Isopropyl-2-methyl-4-oxo-2′-trifluoromethyl-1,4-dihydro-[3,4′]-bipyridinyl-5-carboxylic acid 4-(N-cyano-S-methylsulfonimidoyl)-benzylamide]
4.5 nM | Cc1c(-c2cccc(C(F)(F)F)c2)c(=O)c(C(=O)NCc2ccc(S(=O)(=NC#N)C(C)C)cc2)cn1C1CC1 (single isomer, unassigned) [Example 22A]
3.1 nM | Cc1c(-c2cccc(C(F)F)c2)c(=O)c(C(=O)NCc2ccc(S(C)(=O)=NC#N)cc2)cn1C(C)C (single isomer, unassigned) [Example 1A, 5-(3-Difluoromethyl-phenyl)-1-isopropyl-6-methyl-4-oxo-1,4-dihydro-pyridine-3-carboxylic acid 4-(N-cyano-S-methylsulfonimidoyl)-benzylamide]
5.2 nM | CCS(=O)(=NC#N)c1ccc(CNC(=O)c2cn(C3CC3)c(C)c(-c3cccc(C(F)(F)F)c3)c2=O)cc1 (single isomer, unassigned) [Example 21A]
< 1 nM | CCn1cc(C(=O)NCc2ccc(S(=O)(=NC#N)C(C)C)cc2)c(=O)c(-c2cccc(C(F)F)c2)c1C (single isomer, unassigned) [Example 30B]
